Where two headings read alike, the source gives them in different places.
Legend:
[1] = system: Bacillus subtilis ATCC 14579; test: Photosensitizing assay (MIC before and after UV irradiation, agar cup-plate); assay type: cell-based; parameters: key to MIC (mg mL^−1) Control / MIC (mg mL^−1) Test / MIC (mM) Control / MIC (mM) Test: -: no activity; details: for MIC: Bacillus subtilis, ATCC14579, light or radiation study; for photosensitizing activity against B. subtilis (in words): after 20 min of irradiation
Description: The photosensitizing activity was determined using the agar cup-plate method (described in Section 2.3) with Hi-Media agar medium. The antibacterial activity against Bacillus subtilis ATCC 14579 was measured before and after exposure to UV lamp (365 nm). The diameters of the inhibition zones were measured in mm and the results were compared with xanthotoxin. The tested organism used was Bacillus subtilis.
For the photosensitizing activity, xanthotoxin was used as a reference drug and DMF as a negative control. The minimum inhibitory concentrations (MIC) were determined using the agar cup-plate method. Each test compound (50 mg) was dissolved in 1 mL DMF (50 mg mL^−1), which was used as a stock solution to carry out the twofold dilution technique. The sample size for all the compounds was adjusted to 0.1 mL. The solution of the test compound (0.1 mL) was added to the cups. The plates were divided into test plates and duplicate plates. Before irradiation, the test plates were incubated in the dark at 37 °C for 3 h to permit the diffusion of the tested compounds through the agar layer. The duplicate plates were incubated overnight and used as a control for the determination of the antibacterial activity. The covers were removed from the test plates, and the dishes were exposed to UV lamp (365 nm) for 20 min. After irradiation, the plates were left overnight in the dark at 37 °C. MIC, the least concentration preventing visible bacterial growth, was determined in both the control and test, indicating the antibacterial and photosensitizing activity of the tested compounds, respectively.
To evaluate the significance of the difference in the results, each experiment was repeated at least three times. […] GraphPad Prism-version 5 (GraphPad Software, Inc., La Jolla, CA, USA) was used to perform statistical analysis of the results.

[2] = system: Bacillus subtilis ATCC 14579; test: Antimicrobial agar cup-plate assay, B. subtilis; assay type: cell-based; parameters: key: -: no activity; details: 0.1 mL of compound in DMF, overnight incubation, mean ± SD, at least three experiments
Description: (§1) The antimicrobial activity of all newly synthesized compounds was determined using the agar cup-plate method using the Hi-Media agar medium. Xanthotoxin, tobramycin, and amphotericin B were used as reference drugs. All newly synthesized compounds were tested against two strains of Gram-positive bacteria (Bacillus subtilis ATCC 14579 and Staphylococcus aureus ATCC 25923), Gram-negative bacteria (Escherichia coli ATCC 25922), and yeast (Candida albicans ATCC 10231).
(§2) The nutrient agar medium consists of 0.3% of beef extract, 0.5% of peptone, 0.1% dipotassium hydrogen phosphate, and 1.5% agar. Broth cultures of the organisms were prepared by incubating slant agar seeded with the organisms overnight.
(§3) The prepared broth culture (0.02 mL) was carefully added to sterile Petri dishes. Then, 10 mL of the liquefied nutrient agar medium was poured into each dish, mixed uniformly, and allowed to solidify. Using a sterilized cork borer, cups (9 mm) were scooped out of the agar media contained in the Petri dishes. Each test compound (50 mg) was dissolved in 1 mL DMF (50 mg mL^−1), which was used as a stock solution to carry out the twofold dilution technique. A fixed volume (0.1 mL) of the tested compounds dissolved in dimethylformamide (DMF) was added. Each plate contained a cup filled with DMF to disregard the effect of solvent. Additionally, two other cups were filled with tobramycin and xanthotoxin being used as reference drugs. The plates were incubated overnight to examine the antimicrobial activity. Zones of inhibition obtained by each test compound were measured in millimeters and the results are recorded in Table 2.
(§4) GraphPad Prism-version 5 (GraphPad Software, Inc., La Jolla, CA, USA) was used for statistical analysis.

E. coli DNA gyrase = target: T1, E. coli DNA gyrase (Escherichia coli, UniProt P0AES6); test: In vitro DNA gyrase supercoiling inhibitory assay; assay type: biochemical; details: mean ± SD of three separate experiments
T1 construct: purchased John Innes Enterprises Ltd
Description: The supercoiling assay, based on DNA triplex, formation [43] was performed on the black streptavidin-coated 96-well microtiter plates (Thermo Scientific Pierce). Serial dilutions of the tested compounds and standard drugs were prepared, starting from 5.0 U/mL (5.0, 2.5, 1.25, 0.625, 0.312, 0.156, and 0.078 U/mL). The plates were first rehydrated with the supplied wash buffer [20 mM Tris-HCl (pH 7.6), 137 mM NaCl 0.01% (w/v), BSA 0.05% (v/v) Tween 20] and oligonucleotide was immobilized onto the wells. The excess oligonucleotide was then washed off, and the enzyme assay was carried out in the wells.
The final reaction volume of 30 μL in buffer [35 mM Tris × HCl (pH 7.5), 24 mM KCl, 4 mM MgCl2, 2 mM DTT (dithiothreitol), 1.8 mM spermidine, 1 mM ATP, 6.5% (w/v) glycerol, 0.1 mg/mL albumin] contained 1.5 U of gyrase from E. coli, 0.75 μg of relaxed pNO1 plasmid, and 3 μL of inhibitor solution in 10% DMSO and 0.008% Tween 20. Reactions were incubated for 30 min at 37 °C and after the addition of the TF buffer [50 mM NaOAc (pH 5.0), 50 mM NaCl, and 50 mM MgCl2], which terminated the enzymatic reaction for another 30 min at rt to allow the triplex formation. The unbound plasmid was then washed off using TF buffer, and a solution of SybrGOLD stain in T10 buffer [10 mM Tris × HCl (pH 8.0) and 1 mM EDTA] was added. After mixing, the fluorescence (excitation: 495 nm, emission: 537 nm) was measured using BioTek Synergy HT microplate reader. […] GraphPad Prism-version 5 (GraphPad Software, Inc., La Jolla, CA, USA) was used to determine the IC50 values of both the tested compounds and standard drugs across the different concentrations.

[3] = system: Candida albicans ATCC 10231; test: Antimicrobial agar cup-plate assay, C. albicans; assay type: cell-based; parameters: key to Inhibition Zone (mm) C. albicans: -: no activity; details: 0.1 mL of compound in DMF, overnight incubation, mean ± SD, at least three experiments
Description: as §1, §2, §3, §4

[4] = system: Escherichia coli ATCC 25922; test: Antimicrobial agar cup-plate assay, E. coli; assay type: cell-based; details: 0.1 mL of compound in DMF, overnight incubation, mean ± SD, at least three experiments
Description: as §1, §2, §3, §4

[5] = system: Staphylococcus aureus ATCC 25923; test: Antimicrobial agar cup-plate assay, S. aureus; assay type: cell-based; parameters: key: -: no activity; details: 0.1 mL of compound in DMF, overnight incubation, mean ± SD, at least three experiments
Description: as §1, §2, §3, §4

[6] = 20 min, B. subtilis, after irradiation with UV lamp (365 nm) for 20 min (photosensitizing activity), 100 μL per cup, read-out: MIC (mg mL^−1) Test
[7] = 20 min, B. subtilis, after irradiation with UV lamp (365 nm) for 20 min (photosensitizing activity), read-out: MIC (mM) Test
[8] = B. subtilis, without irradiation (antibacterial activity), 100 μL per cup, read-out: MIC (mg mL^−1) Control
[9] = B. subtilis, without irradiation (antibacterial activity), read-out: MIC (mM) Control
[10] = IC50 (μM) DNA gyrase supercoiling
[11] = IC50 (μg mL^−1) DNA gyrase supercoiling

CCc1cc2c(C)cc(=O)oc2c2c(-c3ccccc3)coc12 [Compound 8a, 9-Ethyl-7-methyl-3-phenyl-5H-furo[2,3-h]benzopyran-5-one]
MIC [1, 6]: 97 mg/L | MIC [1, 7]: 0.32 mM | MIC [1, 8]: 310 mg/L | MIC [1, 9]: 1.02 mM | Inhibition Zone (mm) B. subtilis [2]: 20 ± 1.414 mm | IC50 (E. coli DNA gyrase; [10]): 7.89 ± 0.117 µM | IC50 (E. coli DNA gyrase; [11]): 7.89 µM | Inhibition Zone (mm) C. albicans [3]: - | Inhibition Zone (mm) E. coli [4]: 30 ± 1.414 mm | melting point: 103 to 105 °C | Inhibition Zone (mm) S. aureus [5]: 25 ± 1.414 mm

CCc1cc2c(-c3ccccc3)cc(=O)oc2c2c(-c3ccccc3)coc12 [Compound 8d, 3,7-Diphenyl-9-ethyl-5H-furo[2,3-h]benzopyran-5-one]
MIC [1, 6]: 97 mg/L | MIC [1, 7]: 0.26 mM | MIC [1, 8]: 780 mg/L | MIC [1, 9]: 2.13 mM | Inhibition Zone (mm) B. subtilis [2]: 12 ± 0.8165 mm | IC50 (E. coli DNA gyrase; [10]): 0.76 ± 0.0223 µM | IC50 (E. coli DNA gyrase; [11]): 0.764 µM | Inhibition Zone (mm) C. albicans [3]: - | Inhibition Zone (mm) E. coli [4]: 30 ± 0.8165 mm | melting point: 178 to 180 °C | Inhibition Zone (mm) S. aureus [5]: 23 ± 1.414 mm

CCc1cc2c(-c3ccccc3)cc(=O)oc2c2c1oc1ccccc12 [Compound 6b, 6-Ethyl-4-phenyl-2H-benzofuro[2,3-h]benzopyran-2-one]
MIC [1, 6]: 1500 mg/L | MIC [1, 7]: 4.41 mM | MIC [1, 8]: 3120 mg/L | MIC [1, 9]: 9.18 mM | Inhibition Zone (mm) B. subtilis [2]: 22 ± 1.414 mm | Inhibition Zone (mm) C. albicans [3]: 15 ± 1.414 mm | Inhibition Zone (mm) E. coli [4]: 17 ± 1.414 mm | melting point: 120 to 122 °C | Inhibition Zone (mm) S. aureus [5]: 30 ± 1.414 mm

CCc1cc2c(C)cc(=O)oc2c2c(-c3ccc(OC)cc3)coc12 [Compound 8c, 9-Ethyl-3-(4-methoxyphenyl)-7-methyl-5H-furo[2,3-h]benzopyran-5-one]
MIC [1, 6]: 97 mg/L | MIC [1, 7]: 0.29 mM | MIC [1, 8]: 780 mg/L | MIC [1, 9]: 2.33 mM | Inhibition Zone (mm) B. subtilis [2]: 12 ± 1.414 mm | Inhibition Zone (mm) C. albicans [3]: - | Inhibition Zone (mm) E. coli [4]: 24 ± 1.414 mm | melting point: 110 to 111 °C | Inhibition Zone (mm) S. aureus [5]: 20 ± 0.8165 mm

CCc1cc2c(-c3ccccc3)cc(=O)oc2cc1OCC(=O)c1ccccc1 [Compound 7d, 6-Ethyl-7-phenacyloxy-4-phenyl-2H-1-benzopyran-2-one]
MIC [1, 6]: 6250 mg/L | MIC [1, 7]: 16.3 mM | MIC [1, 8]: 6250 mg/L | MIC [1, 9]: 16.3 mM | Inhibition Zone (mm) B. subtilis [2]: 9 ± 1.414 mm | Inhibition Zone (mm) C. albicans [3]: - | Inhibition Zone (mm) E. coli [4]: 16 ± 1.414 mm | melting point: 153 to 155 °C | Inhibition Zone (mm) S. aureus [5]: -

CCc1cc2c(-c3ccccc3)cc(=O)oc2c2c(-c3ccc(OC)cc3)coc12 [Compound 8f, 9-Ethyl-3-(4-methoxyphenyl)-7-phenyl-5H-furo[2,3-h]benzopyran-5-one]
MIC [1, 6]: 3120 mg/L | MIC [1, 7]: 7.88 mM | MIC [1, 8]: 6250 mg/L | MIC [1, 9]: 15.8 mM | Inhibition Zone (mm) B. subtilis [2]: 14 ± 1.414 mm | Inhibition Zone (mm) C. albicans [3]: - | Inhibition Zone (mm) E. coli [4]: 18 ± 0.8165 mm | melting point: 150 to 153 °C | Inhibition Zone (mm) S. aureus [5]: 20 ± 1.414 mm

CCc1cc2c(-c3ccccc3)cc(=O)oc2cc1OCC(=O)c1ccc(C)cc1 [Compound 7e, 6-Ethyl-7-(4-methylphenacyloxy)-4-phenyl-2H-1-benzopyran-2-one]
MIC (mM) Test ([1]; B. subtilis, after irradiation with UV lamp (365 nm) for 20 min (photosensitizing activity)): - | MIC (mg mL^−1) Test ([1]; B. subtilis, after irradiation with UV lamp (365 nm) for 20 min (photosensitizing activity), 100 μL per cup): - | MIC (mM) Control ([1]; B. subtilis, without irradiation (antibacterial activity)): - | MIC (mg mL^−1) Control ([1]; B. subtilis, without irradiation (antibacterial activity), 100 μL per cup): - ^d | Inhibition Zone (mm) B. subtilis [2]: - | Inhibition Zone (mm) C. albicans [3]: - | Inhibition Zone (mm) E. coli [4]: 20 ± 0.8165 mm | melting point: 225 to 226 °C | Inhibition Zone (mm) S. aureus [5]: -

CCc1cc2c(C)cc(=O)oc2c2c(-c3ccc(C)cc3)coc12 [Compound 8b, 9-Ethyl-7-methyl-3-(4-methylphenyl)-5H-furo[2,3-h]benzopyran-5-one]
MIC [1, 6]: 97 mg/L | MIC [1, 7]: 0.3 mM | MIC [1, 8]: 780 mg/L | MIC [1, 9]: 2.45 mM | Inhibition Zone (mm) B. subtilis [2]: 10 ± 1.414 mm | IC50 (E. coli DNA gyrase; [10]): 38.6 ± 0.513 µM | IC50 (E. coli DNA gyrase; [11]): 38.6 µM | Inhibition Zone (mm) C. albicans [3]: - | Inhibition Zone (mm) E. coli [4]: 30 ± 1.414 mm | melting point: 149 to 151 °C | Inhibition Zone (mm) S. aureus [5]: 30 ± 1.414 mm

CCc1cc2c(-c3ccccc3)cc(=O)oc2c2c(C)c(C)oc12 [Compound 3b, 2,3-Dimethyl-9-ethyl-7-phenyl-5H-furo[2,3-h]benzopyran-5-one]
MIC [1, 6]: 3120 mg/L | MIC [1, 7]: 9.82 mM | MIC [1, 8]: 3120 mg/L | MIC [1, 9]: 9.82 mM | photosensitizing activity against B. subtilis (in words) [1]: without any photosensitizing activity | Inhibition Zone (mm) B. subtilis [2]: 10 ± 1.414 mm | Inhibition Zone (mm) C. albicans [3]: 15 ± 1.414 mm | Inhibition Zone (mm) E. coli [4]: 16 ± 1.414 mm | melting point: 90 to 92 °C | Inhibition Zone (mm) S. aureus [5]: 22 ± 0.8165 mm

CCc1cc2c(C)cc(=O)oc2c2c(C)c(C)oc12 [Compound 3a, 9-Ethyl-2,3,7-trimethyl-5H-furo[2,3-h]benzopyran-5-one]
MIC [1, 6]: 780 mg/L | MIC [1, 7]: 3.04 mM | MIC [1, 8]: 780 mg/L | MIC [1, 9]: 3.04 mM | photosensitizing activity against B. subtilis (in words) [1]: without any photosensitizing activity | Inhibition Zone (mm) B. subtilis [2]: 20 ± 0.8165 mm | Inhibition Zone (mm) C. albicans [3]: 16 ± 0.8165 mm | Inhibition Zone (mm) E. coli [4]: 15 ± 1.414 mm | melting point: 199 to 201 °C | Inhibition Zone (mm) S. aureus [5]: 30 ± 1.414 mm

CCc1cc2c(-c3ccccc3)cc(=O)oc2c2c(-c3ccc(C)cc3)coc12 [Compound 8e, 9-Ethyl-3-(4-methylphenyl)-7-phenyl-5H-furo[2,3-h]benzopyran-5-one]
MIC [1, 6]: 97 mg/L | MIC [1, 7]: 0.25 mM | MIC [1, 8]: 390 mg/L | MIC [1, 9]: 1.03 mM | Inhibition Zone (mm) B. subtilis [2]: 20 ± 1.414 mm | Inhibition Zone (mm) C. albicans [3]: - | Inhibition Zone (mm) E. coli [4]: 25 ± 0.8165 mm | melting point: 80 to 81 °C | Inhibition Zone (mm) S. aureus [5]: 22 ± 1.414 mm

Reference: publication PMC11434840, “Discovery of Benzopyrone-Based Candidates as Potential Antimicrobial and Photochemotherapeutic Agents through Inhibition of DNA Gyrase Enzyme B: Design, Synthesis, In Vitro and In Silico Evaluation” (Pharmaceuticals, 2024)
